From patent publication US20140170199A1, “PARASITICIDAL COMBINATION COMPRISING INDOXACARB AND DELTAMETHRIN” (priority 2011, published 2014)

Assays:
[1] = test system: voltage-dependent sodium channels expressed in DUM neurons; assay: Whole-cell patch-clamp of voltage-dependent inward sodium current in isolated DUM neuron cell bodies; type: cell-based, cockroaches (Periplaneta Americana)
Protocol: Experiments were performed on dorsal unpaired median (DUM) neuron cell bodies (Grolleau and Lapied (2000), J. Exp. Biol., 203, 1633-1648) isolated from the dorsal midline of the terminal abdominal ganglion of adult male cockroaches (Periplaneta Americana) taken from a stock colony, maintained at 29° C. with a photoperiod of 12 hours light:12 hours dark.
Adult male cockroaches were immobilised dorsal-side up on a dissection dish. The dorsal cuticle, gut and some dorso-longitudinal muscles were removed, to allow access to the ventral nerve cord. The abdominal nerve cord and its terminal abdominal ganglion (TAG), carefully dissected under a binocular microscope, were placed in normal saline. Isolation of adult DUM neuron cell bodies was performed under sterile conditions using enzymatic digestion and mechanical dissociation of the median part of the TAG (Lapied et al. (1989), J. Exp. Biol., 144, 535-549).
Ganglia were excised and incubated for 35 min at 29° C. in cockroach saline supplemented with 1.5 mg/ml collagenase (type I, Worthington, Lakewood, N.J.). After thoroughly washing off the enzyme, ganglia were mechanically dissociated by gentle repeated suctions through fire-polished Pasteur pipettes. Then, the isolated DUM neuron cell bodies were maintained at 29° C. for 24 hours before experiments are carried out.
Isolated neuronal cell bodies were used for electrophysiological studies. […] A total number of six different isolated cell bodies (six replicates) were used for each experiment.
Deltamethrin and DCJW (IN-JT333), stock solutions (100 mM and 10 mM, respectively) were prepared in dimethylsulphoxide (DMSO, Sigma Chemical, France). Final dilutions contained a maximum of 0.1% DMSO.
Deltamethrin and DCJW, prepared in cockroach saline, were applied separately by a gravity perfusion system onto isolated cell body maintained in short-term culture.
Experiments were carried out at room temperature (20° C.).
The patch-clamp technique in the whole-cell recording configuration (voltage-clamp condition) was used to record voltage-dependent inward sodium current. […]
For each time point, relative sodium current amplitudes are expressed as means±standard errors of the mean (SEM) (table 2). […]
In addition to the concomitant application of deltamethrin and DCJW, the effect of the mixture DCJW (10^−7M) and deltamethrin (10^−5 M) on DUM neuron was assessed after a pre-treatment of the cell body by deltamethrin (10^−5 M) for 5 minutes. […]
As in Example 2, for each time point, relative sodium current amplitudes were expressed as means±standard errors of the mean (SEM). […]

[2] = test system: Rhipicephalus sanguineus ticks; assay: Tick control on dogs (experimental infestation, tick counts and efficacy); type: in vivo; parameters: Tick efficacies, arithmetic mean / Tick efficacies, geometric mean: concentration or dose not given beside the values
Protocol: The SCALIBOR® collar was administered to dogs according to the instructions in the Product leaflet. The topical formulation of indoxacarb was administered to dogs in Groups 3 and 4 according to the dose table below:
A 4% deltamethrin-impregnated collar (SCALIBOR®, Merck Animal Health) is used to protect dogs from the bites of sand flies (Phlebotomus sp.), mosquitoes (Culex sp.), and ticks for up to six months with high persistent efficacy. Immediate efficacy of the collar against fleas is known to be inadequate.
The study was conducted on four groups of eight dogs each. • Group 1: Negative control. • Group 2: Dogs were fitted with the Scalibor® collar on Day 0. • Group 3: Dogs were treated with a topical formulation of indoxacarb on Days 0, 30, 60, 90, 120, 150, and 180 (once a month for 6 months). • Group 4: Dogs were fitted with the Scalibor® collar (4% deltamethrin) on Day 0 and treated with a topical formulation of indoxacarb on Days 0, 30, 60, 90, 120, 150, and 180 (once a month for 6 months). Dogs were experimentally infested with 100 fleas and 50 ticks two days before treatment (Day 0) and then on various days throughout the study.
Efficacy against ticks and fleas was calculated for each treatment group at each assessment day according to the formulas given below. Due to the fact that small and even zero tick and flea counts were recorded, it was expected that the tick and flea counts would not follow a normal distribution. It was therefore decided that the primary efficacy calculations would be based on geometric means rather than arithmetic means. The calculations were based on the geometric means of the tick or flea (count+1) data. One (1) was subsequently subtracted from the result to obtain a meaningful value for the geometric mean of each treatment group. Efficacy calculations based on arithmetic means were, however, also reported on.
Percent efficacy against ticks was calculated as follows:
Efficacy(%)=100×(Gmc−Gmt)/Gmc, where:
Gmc=Geometric or arithmetic mean number of live ticks (categories 1-3) on dogs in the control group (Group 1) at a specific time point. Gmt=Geometric or arithmetic mean number of live ticks (categories 1-3; immediate Day+2 efficacy) and dead attached engorged ticks (category 6; residual >Day+2 efficacies) on dogs in the treatment groups (Groups 2, 3 & 4) at a specific time point.

[3] = DCJW 10^-7 M alone, after 20 minutes
[4] = Day +2 (immediate), vs negative control
[5] = Day +2, count ~48 h after treatment or infestation
[6] = Day +16, count ~48 h after infestation
[7] = Day +30, count ~48 h after infestation
[8] = Day +44, count ~48 h after infestation
[9] = Day +72, count ~48 h after infestation
[10] = Day +100, count ~48 h after infestation
[11] = Day +128, count ~48 h after infestation
[12] = Day +156, count ~48 h after infestation
[13] = Day +170, count ~48 h after infestation
[14] = Day +184, count ~48 h after infestation

## N#Cc1ccc(CC(=NNC(=O)Nc2ccc(OC(F)(F)F)cc2)c2cccc(C(F)(F)F)c2)cc1 (mixture of isomers) [metaflumizone E/Z, (EZ)-2012-(4-cyanophenyl)-1-(a,a,a-trifluoro-mtolypethylidene]-4 (trifluoromethoxy) carbanilohydrazide]
[1]; bath application at different concentrations (10^-10 to 10^-5 M), alone
  Effect on the sodium current amplitude: produced a reduction of the sodium current amplitude
[1]; different concentrations (10^-10 to 10^-5 M), alone
  Dose dependence of the reduction of sodium current amplitude: not dose-dependent

## COC(=O)C12Cc3cc(Cl)ccc3C1=NN(C(=O)Nc1ccc(OC(F)(F)F)cc1)CO2 (stereo not shown) [DCJW, methyl 7-chloro-2,5-dihydro-2-[[[4-(trifluoromethoxy)phenyl]amino]carbonyl]indeno-[1,2-e][1,3,4]oxadiazine-4a(3H)-carboxylate]
[1]; [3]
  Percentage of inhibition of the sodium current amplitude: 40.7%
  Sodium current amplitude (relative to control current 100%): 59.3%

## CC1(C)[C@H](C(=O)O[C@H](C#N)c2cccc(Oc3ccccc3)c2)[C@@H]1C=C(Br)Br [deltamethrin, (S)-α-Cyano-3-phenoxybenzyl-(1R,3R)-3-(2,2-dibromovinyl)-2,2-dimethylcyclopropanecarboxylate]
[2]; [4]
  Tick efficacies, geometric mean: 76.9%

## COC(=O)N(C(=O)N1CO[C@@]2(C(=O)OC)Cc3cc(Cl)ccc3C2=N1)c1ccc(OC(F)(F)F)cc1 [indoxacarb, (5)-methyl 7-chloro-2,5-dihydro-2-[[(methoxycarbonyl) [4-(trifluoromethoxy)phenyl]amino]carbonyl]indeno[1,2-e][1,3,4]oxadiazine-4a(3H)-carboxylate]
[2]; [4]
  Tick efficacies, arithmetic mean: 13.3%
  Tick efficacies, geometric mean: 15.5%
[2]; [5]
  Tick counts, arithmetic mean: 18.8
  Tick counts, geometric mean: 18.1^4
[2]; Day +2 to Day 184
  Immediate or persistent effectiveness against R. sanguineus ticks: No immediate or persistent effectiveness
[2]; [6]
  Tick counts, arithmetic mean: 13.8
  Tick counts, geometric mean: 12.1^4
[2]; Day +16, vs negative control
  Tick efficacies, arithmetic mean: 34.3%
  Tick efficacies, geometric mean: 37.4%
[2]; [7]
  Tick counts, arithmetic mean: 14.0
  Tick counts, geometric mean: 9.8^2,4
[2]; Day +30, vs negative control
  Tick efficacies, arithmetic mean: 42.0%
  Tick efficacies, geometric mean: 58.7%
[2]; [8]
  Tick counts, arithmetic mean: 18.4
  Tick counts, geometric mean: 18.0^4
[2]; Day +44, vs negative control
  Tick efficacies, arithmetic mean: 25.0%
  Tick efficacies, geometric mean: 25.8%
[2]; [9]
  Tick counts, arithmetic mean: 24.5
  Tick counts, geometric mean: 23.5^4
[2]; Day +72, vs negative control
  Tick efficacies, arithmetic mean: 20.0%
  Tick efficacies, geometric mean: 20.9%
[2]; [10]
  Tick counts, arithmetic mean: 18.3
  Tick counts, geometric mean: 16.0^4
[2]; Day +100, vs negative control
  Tick efficacies, arithmetic mean: 35.4%
  Tick efficacies, geometric mean: 40.9%
[2]; [11]
  Tick counts, arithmetic mean: 24.5
  Tick counts, geometric mean: 22.6^4
[2]; Day +128, vs negative control
  Tick efficacies, arithmetic mean: 12.1%
  Tick efficacies, geometric mean: 16.0%
[2]; [12]
  Tick counts, arithmetic mean: 25.4
  Tick counts, geometric mean: 25.0^4
[2]; Day +156, vs negative control
  Tick efficacies, arithmetic mean: 12.1%
  Tick efficacies, geometric mean: 12.2%
[2]; [13]
  Tick counts, arithmetic mean: 21.1
  Tick counts, geometric mean: 19.9^4
[2]; Day +170, vs negative control
  Tick efficacies, arithmetic mean: 18.4%
  Tick efficacies, geometric mean: 20.0%
[2]; [14]
  Tick counts, arithmetic mean: 18.3
  Tick counts, geometric mean: 17.1^4
[2]; Day +184, vs negative control
  Tick efficacies, arithmetic mean: 25.1%
  Tick efficacies, geometric mean: 28.3%
